Test results taken from patent US11945875B2, “Motile sperm domain containing protein 2 and cancer” (ImmuneWalk Therapeutics, Inc., priority 2015, dated 2024).
“Also recorded” adds a separate entry of the source.

Legend:
[1] = system: human monocytes; conditions: cited from earlier work
[2] = system: EGF induced phosphorylation of AKT; experiment: EGF-induced phosphorylation of AKT in MDA-231 cells, Western blot; assay type: cell-based, human; conditions: 20 min pre-incubation, EGF 200 ng/ml 10 min
Procedure: In vitro: To test the effect of VB-201 on epidermal growth factor (EGF)-induced phosphorylation, MDA-231 breast cancer cells (10^6) were starved for 3 hours in 0.5% FCS medium, followed by incubation with various concentrations of VB-201 (1 μg/ml, 5 μg/ml, and 10 μg/ml) or a solvent control for 20 minutes. The MDA-231 cells were then activated with EGF (200 ng/ml) for 10 min. Phosphorylation of AKT was then analyzed by Western Blot. HSP90 was used for a loading control.

[3] = target: T1, TLR2 (Homo sapiens, UniProt O60603); experiment: Precipitation of proteins from human CD14 monocyte lysate with labelled VB-201 or VB-221, Western blot; assay type: binding; conditions: ovalbumin-biotin labelled compound (OB201/OB221)
T1 construct: endogenous in cells; host or cells: human CD14 monocytes
Procedure: (§1) VB-201 and VB-221 were labeled with biotin as follows. VB-201, VB-221 and ovalbumin (OVA, Sigma, Israel) were dissolved in 0.1 M MES buffer (Thermo Scientific, Rockford, IL) and conjugated using EDC [1-ethyl-3-(dimethylaminopropyl) carbodiimide HCL] (Thermo Scientific) at a molar ratio of 100 (VB-201/VB-221):1 (OVA):240 (EDC) for 2-3 hr at room temperature. After which, samples were transferred to 10 kDa dialysis cassettes (Thermo Scientific) and dialyzed overnight against PBS. The ovalbumin bound VB-201 (OB201) and VB-221 (OB221) were then conjugated with amine-PEG2-biotin (in 0.1 M MES buffer) using EDC at a molar ratio of 1 (OB201/OB221):100 (amine-PEG2-biotin):700 (EDC). The reaction was allowed to proceed for 2-3 hours at room temperature after which samples were again transferred to a 10 kDa dialysis cassette and dialyzed overnight against PBS.
(§2) Cells were lysed using a 1% NP-40 lysis buffer containing 1:100 protease and phosphatase inhibitors, followed by 20 min incubation on ice and 15 min centrifugation at maximum speed. Samples were incubated overnight at 4° C. with solvent, OB201 or OB221 in a rotator. Streptavidin agarose beads (Sigma, Israel) were added for 2 hours. Protein elution was performed with lysis buffer without DTT for 10 min at room temperature. Sample loading, transfer and immuno-blotting were performed as described above. […]

[4] = target: T2, MOSPD2 (Homo sapiens, UniProt Q8NHP6); experiment: as above; assay type: binding; set-up: endogenous in cells; host or cells: human CD14 monocytes; conditions: ovalbumin-biotin labelled compound (OB201/OB221)
T2 sequence (Q8NHP6 1-518): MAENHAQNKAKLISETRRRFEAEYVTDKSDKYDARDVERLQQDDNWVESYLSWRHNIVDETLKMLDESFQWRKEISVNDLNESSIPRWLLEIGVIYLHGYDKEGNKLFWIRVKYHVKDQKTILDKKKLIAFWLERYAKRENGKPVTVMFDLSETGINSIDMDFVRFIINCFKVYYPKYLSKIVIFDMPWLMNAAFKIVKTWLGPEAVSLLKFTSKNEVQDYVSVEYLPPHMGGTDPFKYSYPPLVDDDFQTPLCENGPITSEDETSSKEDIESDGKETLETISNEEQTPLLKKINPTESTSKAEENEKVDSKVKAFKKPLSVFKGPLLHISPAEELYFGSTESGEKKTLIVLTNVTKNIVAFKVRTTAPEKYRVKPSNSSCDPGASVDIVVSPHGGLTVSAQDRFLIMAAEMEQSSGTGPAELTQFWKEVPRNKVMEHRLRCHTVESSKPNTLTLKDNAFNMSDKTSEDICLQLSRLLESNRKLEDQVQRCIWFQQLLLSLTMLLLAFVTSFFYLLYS
Procedure: as §1, §2

[5] = target: T2, MOSPD2; experiment: Mass-Spectrometry differential display of proteins precipitated from human monocytes; assay type: binding; set-up: endogenous in cells; host or cells: human CD14 monocytes; conditions: labeled compound
Description: Using labeled VB-201 and VB-221, proteins from human monocytes were precipitated and differential display by Mass-Spectrometry, was studied.

[6] = target: T2, MOSPD2; experiment: Binding to HEK293 cells transfected with HA-tagged human MOSPD2; set-up: expressed in transfected cells; host or cells: HEK293; conditions: ovalbumin labeled compound
Description: VB-201 inhibits human monocyte chemotaxis in vitro and signaling pathways activated downstream of chemokine receptors.

T1 sequence (O60603 21-784): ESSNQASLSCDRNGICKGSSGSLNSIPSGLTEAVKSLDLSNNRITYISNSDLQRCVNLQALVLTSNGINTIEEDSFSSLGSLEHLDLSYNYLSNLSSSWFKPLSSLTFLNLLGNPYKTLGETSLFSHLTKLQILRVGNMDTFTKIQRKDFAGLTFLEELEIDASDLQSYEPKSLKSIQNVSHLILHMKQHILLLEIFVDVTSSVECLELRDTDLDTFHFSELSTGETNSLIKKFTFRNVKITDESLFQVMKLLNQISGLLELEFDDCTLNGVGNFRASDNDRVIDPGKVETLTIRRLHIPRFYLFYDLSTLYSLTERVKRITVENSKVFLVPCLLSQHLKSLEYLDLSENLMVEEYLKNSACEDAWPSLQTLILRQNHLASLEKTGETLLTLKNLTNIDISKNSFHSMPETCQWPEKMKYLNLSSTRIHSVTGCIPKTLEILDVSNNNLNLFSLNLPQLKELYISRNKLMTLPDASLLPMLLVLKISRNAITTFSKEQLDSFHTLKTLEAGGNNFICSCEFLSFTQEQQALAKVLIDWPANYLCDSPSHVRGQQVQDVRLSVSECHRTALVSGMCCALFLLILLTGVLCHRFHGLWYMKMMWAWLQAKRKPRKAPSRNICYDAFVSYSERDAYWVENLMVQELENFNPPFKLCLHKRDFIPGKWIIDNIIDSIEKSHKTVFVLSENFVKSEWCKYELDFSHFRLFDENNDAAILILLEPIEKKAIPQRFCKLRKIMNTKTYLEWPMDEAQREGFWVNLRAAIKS

Compound | inhibition of monocyte chemotaxis / chemokine-induced signaling and migration [1] | inhibition of EGF induced phosphorylation of AKT ([2]; 5 μg/ml) | inhibition of EGF induced phosphorylation of AKT ([2]; 10 μg/ml) | precipitation of TLR2 [3] | binding / precipitation of MOSPD2 [4] | binding of MOSPD2 by Mass-Spectrometry [5] | binding to HA-positive HEK293 cells expressing human MOSPD2 [6]
CCCCCCCCCCCCCCCCOC[C@H](COP(=O)([O-])OCC[N+](C)(C)C)OCCCCC(=O)O [VB-201, 1-hexadecyl-2-(4′-carboxy)butyl-glycero-3-phosphocholine] | inhibits migration | significant inhibition | nearly completely inhibits | comparable intensity | binds and precipitates MOSPD2; also recorded: markedly more intense than VB-221; also recorded: binds to MOSPD2 | strong binding | strong binding
CCCCCCCCCCC(CCCCCCCC)COCC(COP(=O)([O-])OCC[N+](C)(C)C)OCCCCC(=O)O (stereo not drawn) [VB-221, 1-(2′-octyl)dodecyl-2-(4′-carboxy)butyl-glycero-3-phosphocholine] | does not inhibit; also recorded: did not inhibit | – | – | comparable intensity | – | – | –
